Experimental findings from patent US9580426B2, “Compounds that expand hematopoietic stem cells” (Novartis AG, priority 2008, dated 2017) are described below.

In this experiment the test system is Primary adult CD34+ human hematopoietic stem cells (HSCs). In words: % CD34+ assay: HSC expansion screen, dose response. Type of experiment: cell-based. The settings on record: Homo sapiens, Hematopoietic stem cell; dose response 1 nM to 10 μM; total number and/or percent of CD34+ cells. On the procedure: Primary adult CD34^+ human hematopoietic stem cells (HSCs) are cultured and screened to identify compounds of the invention that facilitate HSC expansion. The cells are analyzed for the presence of the desired phenotype (CD34 expression). Compounds of the invention promote HSC expansion in a dose dependent manner.
Culture Medium: StemSpan SFEM medium is serum-free medium (StemCell Technologies, Vancouver, BC) supplemented with the following human recombinant cytokines: thrombopoietin, interleukin-6, Flt-3 ligand, and stem cell factor (all from R&D Systems, Minneapolis, Minn.), each at a final concentration of 50 ng/mL, with vehicle (DMSO) or a compound of the invention.
Human Cell Culture: Fresh human leukophoresed G-CSF mobilized peripheral blood from normal donors, CD34^+ cells from adult bone marrow and cryopreserved human cord blood CD34^+ cells are purchased from AllCells (Berkeley, Calif.). Human CD34^+ cells are enriched from leukophoresed G-CSF mobilized peripheral blood using magnetic cell sorting (MACS, Direct CD34 Progenitor Cell Isolation Kit, Miltenyi Biotec, Bergisch Gladbach, Germany) and cryopreserved. CD34^+ cell purity, checked by flow Cytometry, is higher than 90%. After thawing, the cell viability tested by trypan blue exclusion is higher than 70%. The thawed cells are centrifuged and resuspended with StemSpan medium before being aliquoted for immediate culture. Cells are plated at 10^4 cells/mL in a 384 well plate (Greiner Bio-One, Monroe, N.C.) with 50 μL of medium per well for 7 days. Every 7 days the cells are transferred to larger well plates and fresh medium is added to keep the cell density between 10^4 and 5×10^5 cells/mL. Cells were cultured at 37° C. in 5% CO2. For transplantation, cells were cultured in 75 cm^2 flasks before the cells were transplanted into mice. At a concentration of 1 micromolar, 4-(2-(2-(benzo[b]thiophen-3-yl)-9-isopropyl-9H-purin-6-ylamino)ethyl)phenol (compound 1, table 1; example 1), 4-(2-(2-(benzo[b]thiophen-3-yl)-9-sec-butyl-9H-purin-6-ylamino)ethyl)phenol (compound 2, table 1), and N-(2-(1H-indol-3-yl)ethyl)-2-(benzo[b]thiophen-3-yl)-9-isopropyl-9H-purin-6-amine (compound 9, table 1) each gives rise to a greater than 10-fold increase in the number of CD34^+ CD45RA^− cells derived from 1000 mPB CD34^+ HSCs after 21 days compared to vehicle. Compounds of the invention were assayed in a dose response format (1 nM to 10 μM) to determine the effective concentration that produced the desired effect in 50% of the cells (EC50).
`CC(C)n1cnc2c(NCCCc3cn[nH]c3)nc(-c3csc4ccccc34)nc21` [Example 84] returned an EC50 of 5400 nM.
Compound `Cc1[nH]c2ccccc2c1CCNc1nc(-c2cncc(F)c2)nc2c1ncn2C(C)C` [Example 190] had an EC50 of 5 nM. Against the preceding compound, the EC50 is about 1100-fold lower.
The value for `CC(C)n1cnc2c(NCCc3ccc(O)cc3)nc(-c3ccc(F)nc3)nc21` [Example 34] was 160 nM.
The value for `CC(C)n1cnc2c(NCCc3ccsc3)nc(-c3csc4ccccc34)nc21` [Example 10] was 1380 nM.
In the case of `CC(C)n1cnc2c(NCCc3ccc(OS(N)(=O)=O)cc3)nc(-c3cccnc3)nc21` [Example 114], the EC50 was 1100 nM.
`CC(C)n1cnc2c(NCCc3ccc(O)cc3)nc(-n3cnc4cccnc43)nc21` [Example 159] returned an EC50 of 590 nM.
Consider `Cc1cccc2c(CCNc3nc(-c4cncc(F)c4)nc4c3ncn4C(C)C)c[nH]c12` [Example 185], for which the EC50 was 24 nM.
For the compound `CC(C)n1cnc2c(NCCc3c[nH]c4ccccc34)nc(-c3cccnc3)nc21` [Example 91], the EC50 is 29 nM.
Next, `CC(C)n1cnc2c(NCCc3cccnc3)nc(-c3cncc(F)c3)nc21` [Example 166]: 7500 nM; `CC(C)n1ncc2c(NCCc3ccc(O)cc3)nc(-c3csc4ccccc34)nc21` [Example 135]: 380 nM.
Consider `CC(C)n1cnc2c(NCCc3ccc(O)cc3)nc(-c3cncc(F)c3)cc21` [Example 161, 4-(2-(6-(5-Fluoropyridin-3-yl)-1-isopropyl-1H-imidazo[4,5-c]pyridin-4-ylamino)ethyl)phenol], for which the EC50 was 170 nM. This EC50 lies about 2.2-fold lower than the previous one.
`Cc1ccncc1-c1nc(NCCc2ccc(O)cc2)c2ncn(C(C)C)c2n1` [Example 35] returned an EC50 of 340 nM.
`Oc1ccc(CCNc2nc(-c3csc4ccccc34)nc3c2ncn3[C@H]2CCOC2)cc1` [Example 152]: it took 350 nM to reach a half-maximal effect (EC50).
`C=C(C)n1cnc2c(NCCc3c[nH]c4ccccc34)nc(-c3cncc(F)c3)nc21` [Example 173] had an EC50 of 12 nM.
The value for `N#Cc1cncc(-c2nc(NCCc3ccc(O)cc3)c3ncn(C4COC4)c3n2)c1` [Example 133] was 180 nM.
Regarding `CC(C)n1cnc2c(NCCc3ccc(O)cc3)nc(-c3cncc(F)c3)nc21` [Example 50], a half-maximal response (EC50) required 34 nM.
`CC(C)n1cnc2c(NCCc3ccc(O)cc3)cc(-c3cncc(F)c3)nc21` [Example 177, 4-(2-(5-(5-Fluoropyridin-3-yl)-3-isopropyl-3H-imidazo[4,5-b]pyridin-7-ylamino)ethyl)phenol] returned an EC50 of 140 nM.
As for `Cc1cc(O)ccc1CCNc1nc(-c2cccnc2)nc2c1ncn2C(C)C` [Example 138], a half-maximal effect (EC50) was put at 400 nM. This EC50 lies about 2.9-fold higher than the previous one.
In the case of `CC(C)n1cnc2c(NCCc3ccc(O)cc3)nc(-n3ccnc3)nc21` [Example 40], the EC50 stood at 260 nM.
In turn, `CC(C)n1cnc2c(NCCc3c[nH]c4ccccc34)nc(-c3cncc(F)c3)nc21` [Example 170] gave an EC50 of 6 nM.
Compound `CC(C)n1cnc2c(NCCc3c[nH]c4ccc(Cl)cc34)nc(-c3cccnc3)nc21` [Example 148] gave an EC50 of 750 nM.
The value for `CC(C)n1cnc2c(NCCc3ccc(O)cc3)nc(-n3cnc4ccccc43)nc21` [Example 121] was 86 nM; that for `CC(C)n1cnc2c(NCCc3ccc(O)cc3)nc(N3CCCC3)nc21` [Example 38] was 1600 nM.
The value for `CC(C)Cn1cnc2c(NCCc3ccc(O)cc3)nc(-c3csc4ccccc34)nc21` [Example 6] was 2530 nM; that for `CC(C)n1cnc2c(NCc3ccc4[nH]c(=O)[nH]c4c3)nc(-c3csc4ccccc34)nc21` [Example 90] was 3300 nM.
Next, `CC(C)n1cnc2c(NCCc3ccc(O)cc3)nc(-c3ccc(C#N)nc3)nc21` [Example 139]: 1300 nM; `CC(C)n1cnc2c(NCCc3ccc(O)cc3)nc(-c3cncc(S(C)(=O)=O)c3)nc21` [Example 46]: 650 nM.
Consider `CC(C)n1cnc2c(NCCc3c[nH]c4cc(O)ccc34)nc(-c3cncc(F)c3)nc21` [Example 182], for which the EC50 stood at 5100 nM. This EC50 lies about 7.8-fold higher than the previous one.
The value for `CC[C@H](C)n1cnc2c(NCCc3c[nH]c4ccccc34)nc(-c3cncc(C)c3)nc21` [Example 131S] was 3 nM.
For the compound `COc1ccc2[nH]cc(CCNc3nc(-c4cncc(F)c4)nc4c3ncn4C(C)C)c2c1` [Example 172], the EC50 amounted to 420 nM.
As for `Oc1ccc(CCNc2nc(-c3csc4ccccc34)nc3c2ncn3[C@@H]2CCOC2)cc1` [Example 153, (R)-4-(2-(2-(benzo[b]thiophen-3-yl)-9-(tetrahydrofuran-3-yl)-9H-purin-6-ylamino)ethyl)phenol], the 50% effective concentration (EC50) amounted to 220 nM.
Consider `Cc1ccc2[nH]cc(CCNc3nc(-c4cccnc4)nc4c3ncn4C(C)C)c2c1` [Example 62], for which the EC50 was 720 nM. This EC50 is about 3.3-fold higher than that of the compound before.
Compound `CCC(C)n1cnc2c(NCCc3c[nH]c4ccccc34)nc(-c3cncc(C)c3)nc21` (stereo not drawn) [Example 131] returned a 50% effective concentration (EC50) of 4 nM.
As to `Cc1nccn1-c1nc(NCCc2c[nH]c3ccccc23)c2ncn(C(C)C)c2n1` [Example 184], the EC50 came to 8 nM.
On to `CC(C)n1cnc2c(NCCc3c[nH]c4ccc(OC(=O)CCCCCNC(=O)CCCC[C@@H]5SC[C@@H]6NC(=O)N[C@@H]65)cc34)nc(-c3csc4ccccc34)nc21` [Example 210, 3-(2-(2-(benzo[b]thiophen-3-yl)-9-isopropyl-9H-purin-6-ylamino)ethyl)-1H-indol-5-yl 6-(5-((3aS,4S,6aR)-2-oxohexahydro-1H-thieno[3,4-d]imidazol-4-yl)pentanamido)hexanoate], for which the EC50 came out at 2100 nM. Compared with the last compound, the EC50 is about 260-fold higher.
In turn, `Oc1ccc(CCNc2nc(-c3cccnc3)nc3c2ncn3[C@H]2CCOC2)cc1` [Example 93S] showed an EC50 of 1100 nM.
Compound `C[C@H](CO)n1cnc2c(NCCc3c[nH]c4ccccc34)nc(-c3cncc(F)c3)nc21` [Example 157R, (R)-2-(6-(2-(1H-indol-3-yl)ethylamino)-2-(5-fluoropyridin-3-yl)-9H-purin-9-yl)propan-1-ol] came in with an EC50 of 8 nM. This EC50 is about 140-fold lower than that of the compound before.
In the case of `Cc1ncn(-c2nc(NCCc3ccc(O)cc3)c3ncn(C(C)C)c3n2)c1C` [Example 162], the response was half-maximal at 140 nM (EC50). Against the preceding compound, the EC50 is about 18-fold higher.
`CC(C)n1cnc2c(NCCc3ccc(O)cc3)nc(-c3ccncc3)nc21` [Example 31] had an EC50 of 660 nM.
Consider `CC(C)n1ccc2c(NCCc3ccc(O)cc3)nc(-c3cncc(F)c3)nc21` [Example 141, 4-(2-(2-(5-Fluoropyridin-3-yl)-7-isopropyl-7H-pyrrolo[2,3-d]pyrimidin-4-ylamino)ethyl)phenol], for which a half-maximal response (EC50) required 160 nM.
The value for `CC(C)n1cnc2c(NCCc3ccc(O)nc3)nc(-c3cncc(F)c3)nc21` [Example 174] was 2200 nM.
On to `CC(C)n1cnc2c(NCCc3ccc(O)cc3)nc(-c3ccccn3)nc21` [Example 44], for which a half-maximal response (EC50) required 1700 nM.
Turning to `CC(C)n1cnc2c(NCCc3ccc(O)cc3)nc(-c3cncc4ccccc34)nc21` [Example 145], a half-maximal effect (EC50) was put at 5400 nM.
`Oc1ccc(CCNc2nc(-c3cncc(F)c3)nc3c2ncn3C2COC2)cc1` [Example 127] yielded an EC50 of 470 nM.
`CC[C@@H](C)n1cnc2c(NCCc3c[nH]c4ccccc34)nc(-c3cncc(F)c3)nc21` [Example 132R] registered an EC50 of 1 nM.
As for `Cn1cnc2c(NCCc3ccc(O)cc3)nc(-c3csc4ccccc34)nc21` [Example 7], it took 7200 nM to reach a half-maximal effect (EC50).
Regarding `CC[C@@H](C)n1cnc2c(NCCc3c[nH]c4ccccc34)nc(-c3cncc(C)c3)nc21` [Example 131R], the midpoint of the response, the EC50, lay at 3 nM.
`CCC(C)n1cnc2c(NCCc3c[nH]c4ccccc34)nc(-c3csc4ccccc34)nc21` (stereo not drawn) [Example 23]: a half-maximal effect (EC50) was put at 19 nM.
For `CC(C)n1cnc2c(NCCc3ccc(O)cc3)nc(-c3cnccn3)nc21` [Example 43], a half-maximal effect (EC50) was put at 2400 nM.
In turn, `C[C@@H](CO)n1cnc2c(NCCc3c[nH]c4ccccc34)nc(-c3cncc(F)c3)nc21` [Example 157S, (S)-2-(6-(2-(1H-indol-3-yl)ethylamino)-2-(5-fluoropyridin-3-yl)-9H-purin-9-yl)propan-1-ol] gave an EC50 of 3 nM.
As for `Fc1ccc(CCNc2nc(-c3csc4ccccc34)nc3c2ncn3-c2ccccc2)cc1` [Example 19], a half-maximal response (EC50) required 1100 nM.
As to `CC(C)n1cnc2c(NCCNc3ccccn3)nc(-c3cccnc3)nc21` [Example 72], it took 6300 nM to reach a half-maximal effect (EC50).
For the compound `CC(C)n1ccc2c(NCCc3ccc(O)cc3)nc(-c3csc4ccccc34)nc21` [Example 198], the EC50 was 1100 nM.
Regarding `CCCc1nccn1-c1nc(NCCc2ccc(O)cc2)c2ncn(C(C)C)c2n1` [Example 181], it took 2500 nM to reach a half-maximal effect (EC50).

As a reminder, the EC50 is the concentration that produces a half-maximal response.
